In publication PMC8421423, “Cellular model system to dissect the isoform-selectivity of Akt inhibitors” (Nature Communications, 2021):
“And” between values parts separate entries of the source, which are not always exact repeats. Equal values may be shown once. Read-outs that look alike come from different tables or passages of the source.

Experiments:
parental Ba/F3 cells = assay: CellTiter-Glo cell viability assay; type: cell-based, murine
Ba/F3^myr-Akt1 cells = assay: CellTiter-Glo cell viability assay; conditions: for Log ratio EC50 [Akt] / EC50 [Akt], Akt1 / Akt2: cell viability assay Ba/F3 myr-Akt cells, log units
Ba/F3^myr-Akt2 cells = assay: CellTiter-Glo cell viability assay
Ba/F3^myr-Akt3 cells = assay: CellTiter-Glo cell viability assay; conditions: for Log ratio EC50 [Akt] / EC50 [Akt], Akt3 / Akt2: cell viability assay Ba/F3 myr-Akt cells, log units
Akt1 = Akt1 (Homo sapiens, UniProt P31749); assay: STK HTRF KinEASE activity-based assay (IC50); conditions: for Log ratio IC50 [Akt] / IC50 [Akt], Akt1 / Akt2: biochemical activity based assay, log units
Akt1, sequence (P31749 whole entry): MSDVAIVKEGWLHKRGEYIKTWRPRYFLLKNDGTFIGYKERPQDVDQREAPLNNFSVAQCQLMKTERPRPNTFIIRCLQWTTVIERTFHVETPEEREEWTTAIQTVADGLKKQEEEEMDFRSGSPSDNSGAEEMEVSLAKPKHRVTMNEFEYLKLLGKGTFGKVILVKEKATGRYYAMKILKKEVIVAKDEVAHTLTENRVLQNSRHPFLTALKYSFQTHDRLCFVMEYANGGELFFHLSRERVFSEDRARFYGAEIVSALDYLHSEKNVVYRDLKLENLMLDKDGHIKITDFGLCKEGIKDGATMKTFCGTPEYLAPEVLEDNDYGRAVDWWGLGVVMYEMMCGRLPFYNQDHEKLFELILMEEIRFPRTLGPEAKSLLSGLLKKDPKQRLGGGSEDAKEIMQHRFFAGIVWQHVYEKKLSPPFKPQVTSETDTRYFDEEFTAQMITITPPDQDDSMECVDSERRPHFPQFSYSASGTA

Akt2 = Akt2 (Homo sapiens, UniProt P31751); assay: STK HTRF KinEASE activity-based assay (IC50)
Akt2, sequence (P31751 whole entry): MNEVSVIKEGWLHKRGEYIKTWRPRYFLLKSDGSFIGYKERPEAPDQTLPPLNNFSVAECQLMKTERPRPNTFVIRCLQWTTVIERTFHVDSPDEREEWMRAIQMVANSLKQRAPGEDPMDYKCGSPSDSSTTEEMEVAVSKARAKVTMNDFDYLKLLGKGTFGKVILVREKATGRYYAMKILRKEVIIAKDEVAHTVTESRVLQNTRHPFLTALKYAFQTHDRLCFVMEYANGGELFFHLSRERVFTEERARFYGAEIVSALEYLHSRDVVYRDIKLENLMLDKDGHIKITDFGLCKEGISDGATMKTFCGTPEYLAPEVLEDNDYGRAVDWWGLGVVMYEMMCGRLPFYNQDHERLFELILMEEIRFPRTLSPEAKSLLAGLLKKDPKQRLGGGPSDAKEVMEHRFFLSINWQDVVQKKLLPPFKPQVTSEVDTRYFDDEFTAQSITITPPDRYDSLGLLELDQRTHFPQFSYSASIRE

Akt3 = Akt3 (Homo sapiens, UniProt Q9Y243); assay: STK HTRF KinEASE activity-based assay (IC50)
Akt3, sequence (Q9Y243 whole entry): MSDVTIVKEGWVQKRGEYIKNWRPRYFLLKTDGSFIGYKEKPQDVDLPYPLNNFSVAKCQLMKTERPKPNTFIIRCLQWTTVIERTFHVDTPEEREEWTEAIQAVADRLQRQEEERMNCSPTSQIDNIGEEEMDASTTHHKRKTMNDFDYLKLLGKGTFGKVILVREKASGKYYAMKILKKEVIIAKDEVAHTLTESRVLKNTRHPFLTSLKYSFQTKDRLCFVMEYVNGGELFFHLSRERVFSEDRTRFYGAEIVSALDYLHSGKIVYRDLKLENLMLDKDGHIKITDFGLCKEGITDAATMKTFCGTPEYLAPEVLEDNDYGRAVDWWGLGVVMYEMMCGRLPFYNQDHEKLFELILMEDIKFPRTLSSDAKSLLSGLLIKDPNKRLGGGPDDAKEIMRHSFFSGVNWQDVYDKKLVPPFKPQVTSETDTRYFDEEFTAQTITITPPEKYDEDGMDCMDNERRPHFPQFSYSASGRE

[1] = Mus musculus, BaF3, parental cells, mean of replicates, read-out: CTG BaF3, Mean
[2] = Mus musculus, BaF3, parental cells, single replicates, read-out: CTG BaF3, individual determinations
[3] = parental cells, single replicates, read-out: CTG BaF3, individual determinations
[4] = Mus musculus, read-out: CTG BaF3myr-Akt1, Mean, mean of replicates
[5] = Mus musculus, read-out: CTG BaF3myr-Akt1, individual determinations, single replicates
[6] = read-out: CTG BaF3myr-Akt1, individual determinations, single replicates
[7] = Mus musculus, read-out: CTG BaF3myr-Akt2, Mean, mean of replicates
[8] = read-out: CTG BaF3myr-Akt2, individual determinations, single replicates
[9] = Mus musculus, read-out: CTG BaF3myr-Akt3, Mean, mean of replicates
[10] = Mus musculus, read-out: CTG BaF3myr-Akt3, individual determinations, single replicates
[11] = read-out: CTG BaF3myr-Akt3, individual determinations, single replicates
[12] = HTRF IC50 Akt1, Mean, mean of replicates
[13] = HTRF IC50 Akt1, individual determinations, single replicates
[14] = IC50 Akt1, HTRF, ATP at KM, 1 h preincubation
[15] = HTRF IC50 Akt2, Mean, mean of replicates
[16] = HTRF IC50 Akt2, individual determinations, single replicates
[17] = IC50 Akt2, HTRF, ATP at KM, 1 h preincubation
[18] = HTRF IC50 Akt3, Mean, mean of replicates
[19] = HTRF IC50 Akt3, individual determinations, single replicates
[20] = IC50 Akt3, HTRF, ATP at KM, 1 h preincubation

SMILES | EC50 (parental Ba/F3 cells; [1]) | EC50 (parental Ba/F3 cells; [2]) | EC50 (parental Ba/F3 cells; [3]) | EC50 (Ba/F3^myr-Akt1 cells; [4]) | EC50 (Ba/F3^myr-Akt1 cells; [5]) | Log ratio EC50 [Akt] / EC50 [Akt], Akt1 / Akt2 (Ba/F3^myr-Akt1 cells) | EC50 (Ba/F3^myr-Akt1 cells; [6]) | EC50 (Ba/F3^myr-Akt2 cells; [7]) | EC50 (Ba/F3^myr-Akt2 cells; [8]) | EC50 (Ba/F3^myr-Akt3 cells; [9]) | EC50 (Ba/F3^myr-Akt3 cells; [10]) | Log ratio EC50 [Akt] / EC50 [Akt], Akt3 / Akt2 (Ba/F3^myr-Akt3 cells) | EC50 (Ba/F3^myr-Akt3 cells; [11]) | IC50 (Akt1; [12]) | IC50 (Akt1; [13]) | IC50 (Akt1; [14]) | Log ratio IC50 [Akt] / IC50 [Akt], Akt1 / Akt2 (Akt1) | IC50 (Akt2; [16]) | IC50 (Akt2; [17]) | IC50 (Akt3; [19]) | further results
C=CC(=O)Nc1ccc2[nH]c(=O)n(C3CCN(Cc4ccc(-c5ncc(C(=O)OC)cc5-c5ccccc5)cc4)CC3)c2c1 [compound 5] | 16.3 µM | 18.7 µM | 12.7 µM and 17.6 µM | 4.92 µM | 5.83 µM | 0.26 | 4.17 µM and 4.75 µM | 2.71 µM | 3.75 µM and 1.35 µM and 1.68 µM | 7.65 µM | 7.73 µM | -0.45 | 7.85 µM and 7.37 µM | 0.0355 µM | 0.038 µM and 0.0373 µM and 0.0312 µM | 0.035 ± 0.004 µM | -0.52 | 0.119 µM and 0.116 µM and 0.114 µM | 0.116 ± 0.002 µM | 3.96 µM and 3.22 µM and 3.01 µM | IC50 (Akt2; [15]): 0.116 µM; IC50 (Akt3; [18]): 3.4 µM; IC50 (Akt3; [20]): 3.4 ± 0.406 µM
C=CC(=O)Nc1ccc2[nH]c(=O)n(C3CCN(Cc4ccc(-c5ncc(Cc6cccc(N)c6)cc5-c5ccccc5)cc4)CC3)c2c1 [compound 17] | > 30 µM | > 30 µM | > 30 µM | > 30 µM | > 30 µM | 0.90 | > 30 µM | 3.75 µM | 4.24 µM and 2.81 µM | 22 µM | 21.7 µM | -0.77 | 17.8 µM and 24.3 µM | 2.85 µM | 2.55 µM and 3.9 µM and 2.12 µM | 2.85 ± 0.758 µM | 1.33 | 0.136 µM and 0.142 µM and 0.121 µM | 0.133 ± 0.009 µM | 1.48 µM and 2.41 µM and 2.43 µM | EC50 (parental Ba/F3 cells; Mus musculus, BaF3, CTG, parental BaF3 cell line, read-out: EC50 BaF3): > 30 µM; EC50 (Ba/F3^myr-Akt1 cells; Mus musculus, read-out: EC50 BaF3myr-Akt1, CTG): > 30 µM; EC50 (Ba/F3^myr-Akt2 cells; Mus musculus, read-out: CTG BaF3myr-Akt2, individual determinations, single replicates): 3.2 µM; IC50 (Akt2; [15]): 0.133 µM; IC50 (Akt3; [18]): 2.11 µM; IC50 (Akt3; [20]): 2.11 ± 0.441 µM
C=CC(=O)Nc1ccc2[nH]c(=O)n(C3CCN(Cc4ccc(-c5ncc(CN6CCCC6)cc5-c5ccccc5)cc4)CC3)c2c1 [compound 7] | 8.46 µM | 6.97 µM | 8.01 µM and 10.4 µM | 4.71 µM | 4.23 µM | 0.42 | 4.27 µM and 4.14 µM and 6.2 µM | 1.78 µM | 1.58 µM and 3 µM and 1.35 µM and 1.19 µM | 2.51 µM | 2.06 µM | -0.15 | 1.92 µM and 3.02 µM and 3.04 µM | 7.09 µM | 10 µM and 10.5 µM and 4.2 µM and 7.74 µM and 8.28 µM and 1.75 µM | 7.09 ± 3.44 µM | 1.17 | 0.535 µM and 0.351 µM and 0.552 µM | 0.479 ± 0.091 µM | > 20 µM | IC50 (Akt2; [15]): 0.479 µM; IC50 (Akt3; [18]): > 20 µM; IC50 (Akt3; [20]): > 20 µM; IC50 (Akt3; read-out: HTRF IC50 Akt3, individual determinations, single replicates): > 20 µM
C=CC(=O)Nc1ccc2[nH]c(=O)n(C3CCN(Cc4ccc(-c5ncc(Cc6ccc(C)o6)cc5-c5ccccc5)cc4)CC3)c2c1 [compound 15] |  | > 30 µM | > 30 µM and 25.7 µM | 26.7 µM | 28 µM | 0.27 | 22.1 µM | 14.3 µM | 11.5 µM and 13.9 µM and 23.9 µM and 7.94 µM | 17.2 µM | 15.7 µM | -0.08 | 18.6 µM and 17.2 µM | 0.604 µM | 0.57 µM and 0.597 µM and 0.645 µM | 0.604 ± 0.031 µM | -0.37 | 1.3 µM and 1.34 µM and 1.56 µM | 1.4 ± 0.112 µM | 4.83 µM and 5.38 µM and 2.87 µM | IC50 (Akt3; [20]): 4.36 ± 1.08 µM
C=CC(=O)Nc1ccc2[nH]c(=O)n(C3CCN(Cc4ccc(-c5ncc(C)cc5-c5ccccc5)cc4)CC3)c2c1 [compound 2] | 11.5 µM | 13.2 µM | 10.3 µM and 10.9 µM | 3.1 µM | 2.81 µM | 0.05 | 3.52 µM and 2.96 µM | 2.79 µM | 3.99 µM and 1.13 µM and 1.58 µM | > 30 µM | > 30 µM | -0.46 | > 30 µM | 0.0218 µM | 0.0221 µM and 0.0229 µM and 0.0205 µM | 0.022 ± 0.002 µM | -0.83 | 0.156 µM and 0.149 µM and 0.144 µM | 0.15 ± 0.005 µM | 7.41 µM and 4.78 µM and 10.2 µM and 5.33 µM and 9.79 µM | EC50 (Ba/F3^myr-Akt3 cells; Mus musculus, read-out: EC50 BaF3myr-Akt3, CTG): > 30 µM; IC50 (Akt2; [15]): 0.15 µM; IC50 (Akt3; [18]): 7.51 µM; IC50 (Akt3; [20]): 7.51 ± 1.82 µM
NC1(c2ccc(-c3nc4ccn5c(=O)[nH]nc5c4cc3-c3ccccc3)cc2)CCC1 [MK-2206, reference compound] | 7.39 µM | 6.96 µM | 5.09 µM and 9.92 µM | 1.12 µM | 1.16 µM |  | 0.987 µM and 1.22 µM | 1.34 µM | 1.97 µM and 0.931 µM and 1.12 µM | 5.73 µM | 5.9 µM |  | 5.57 µM |  |  |  |  |  |  |  | 
